Experimental data as given in ChEMBL document CHEMBL3217454, “Structureactivity relationship studies using peptide arrays: the example of HIV-1 Revintegrase interaction” (Medchemcomm, 2013).
Square brackets hold non-standard residues; d marks the D form. Peptide text beside a SMILES is read from it. NMeF = CN[C@@H](Cc1ccccc1)C(=O)O; NMeI = CC[C@H](C)[C@H](NC)C(=O)O; NMeV = CN[C@H](C(=O)O)C(C)C; NMeA = CN[C@@H](C)C(=O)O

How the values were obtained:
[1] = target: Human immunodeficiency virus type 1 integrase (Human immunodeficiency virus 1) (UniProt Q7ZJM1); assay: Binding affinity to HIV-1 integrase measured after overnight incubation by chemiluminescence analysis relative to IN 174-188; parameters: concentration or dose not given beside the values
[2] = test system: Human immunodeficiency virus 1; assay: Binding affinity to HLT-tagged HIV-1 Rev measured after overnight incubation by chemiluminescence analysis relative to IN 174-188; parameters: concentration or dose not given beside the values

Chain of Human immunodeficiency virus type 1 integrase (Human immunodeficiency virus 1) (Q7ZJM1 as listed by the source): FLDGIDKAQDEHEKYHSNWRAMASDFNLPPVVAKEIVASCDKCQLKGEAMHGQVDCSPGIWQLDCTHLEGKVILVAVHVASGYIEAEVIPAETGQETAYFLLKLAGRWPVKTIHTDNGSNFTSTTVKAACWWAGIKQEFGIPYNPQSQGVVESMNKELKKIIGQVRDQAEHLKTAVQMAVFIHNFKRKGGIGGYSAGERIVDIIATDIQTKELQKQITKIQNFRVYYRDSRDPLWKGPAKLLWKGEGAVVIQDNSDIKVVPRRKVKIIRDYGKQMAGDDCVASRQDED

SMILES	Activity [1]	Activity [2]
CC[C@H](C)[C@H](NC(=O)[C@H](Cc1ccccc1)NC(=O)[C@@H](NC(=O)[C@H](C)NC(=O)[C@H](CCSC)NC(=O)[C@H](CCC(N)=O)NC(=O)[C@@H](N)C(C)C)C(C)C)C(=O)N[C@@H](Cc1cnc[nH]1)C(=O)N[C@@H](CC(N)=O)C(=O)N[C@@H](Cc1ccccc1)C(=O)N[C@@H](CCCCN)C(=O)N[C@@H](CCCNC(=N)N)C(=O)N[C@@H](CCCCN)C(=O)O (H-VQMAVFIHNFKRK-OH)	133%	104%
CC[C@H](C)[C@H](NC(=O)[C@H](Cc1ccccc1)NC(=O)[C@H](C(C)C)N(C)C(=O)[C@H](C)NC(=O)[C@H](CCSC)NC(=O)[C@H](CCC(N)=O)NC(=O)[C@@H](NC(=O)[C@H](C)NC(=O)[C@@H](N)[C@@H](C)O)C(C)C)C(=O)N[C@@H](Cc1cnc[nH]1)C(=O)N[C@@H](CC(N)=O)C(=O)N[C@@H](Cc1ccccc1)C(=O)N[C@@H](CCCCN)C(=O)N[C@@H](CCCNC(=N)N)C(=O)N[C@@H](CCCCN)C(=O)O (H-TAVQMA[NMeV]FIHNFKRK-OH)	67%	55%
CC[C@H](C)[C@@H](C(=O)N[C@@H](Cc1cnc[nH]1)C(=O)N[C@@H](CC(N)=O)C(=O)N[C@@H](Cc1ccccc1)C(=O)N[C@@H](CCCCN)C(=O)N[C@@H](CCCNC(=N)N)C(=O)N[C@@H](CCCCN)C(=O)O)N(C)C(=O)[C@H](Cc1ccccc1)NC(=O)[C@@H](NC(=O)[C@H](C)NC(=O)[C@H](CCSC)NC(=O)[C@H](CCC(N)=O)NC(=O)[C@@H](NC(=O)[C@H](C)NC(=O)[C@@H](N)[C@@H](C)O)C(C)C)C(C)C (H-TAVQMAVF[NMeI]HNFKRK-OH)	123%	107%
CC[C@H](C)[C@H](NC(=O)[C@H](Cc1ccccc1)NC(=O)[C@@H](NC(=O)[C@H](C)NC(=O)[C@H](CCSC)NC(=O)[C@H](CCC(N)=O)NC(=O)[C@H](NC(=O)[C@H](C)NC(=O)[C@@H](N)[C@@H](C)O)C(C)C)C(C)C)C(=O)N[C@@H](Cc1cnc[nH]1)C(=O)N[C@@H](CC(N)=O)C(=O)N[C@@H](Cc1ccccc1)C(=O)N[C@@H](CCCCN)C(=O)N[C@@H](CCCNC(=N)N)C(=O)N[C@@H](CCCCN)C(=O)O	115%	226%
CC[C@H](C)[C@H](NC(=O)[C@H](Cc1ccccc1)NC(=O)[C@@H](NC(=O)[C@H](C)NC(=O)[C@H](CCSC)NC(=O)[C@H](CCC(N)=O)NC(=O)[C@@H](NC(=O)[C@H](C)NC(=O)[C@@H](N)[C@@H](C)O)C(C)C)C(C)C)C(=O)N[C@@H](Cc1cnc[nH]1)C(=O)N[C@@H](CC(N)=O)C(=O)N[C@@H](Cc1ccccc1)C(=O)N[C@@H](C)C(=O)N[C@@H](CCCNC(=N)N)C(=O)N[C@@H](CCCCN)C(=O)O (H-TAVQMAVFIHNFARK-OH)	91%	176%
CC[C@H](C)[C@H](NC(=O)[C@H](Cc1ccccc1)NC(=O)[C@@H](NC(=O)[C@H](C)NC(=O)[C@H](CCSC)NC(=O)[C@H](CCC(N)=O)NC(=O)[C@@H](NC(=O)[C@H](C)NC(=O)[C@@H](N)[C@@H](C)O)C(C)C)C(C)C)C(=O)N[C@@H](Cc1cnc[nH]1)C(=O)N[C@@H](CC(N)=O)C(=O)N[C@@H](Cc1ccccc1)C(=O)N[C@@H](CCCCN)C(=O)O (H-TAVQMAVFIHNFK-OH)	120%	127%
CC[C@H](C)[C@H](NC(=O)[C@H](Cc1ccccc1)NC(=O)[C@@H](NC(=O)[C@H](C)NC(=O)[C@H](CCSC)NC(=O)[C@H](CCC(N)=O)NC(=O)[C@@H](NC(=O)[C@H](C)NC(=O)[C@@H](N)[C@@H](C)O)C(C)C)C(C)C)C(=O)N[C@@H](Cc1cnc[nH]1)C(=O)N[C@@H](CC(N)=O)C(=O)N[C@@H](Cc1ccccc1)C(=O)N[C@@H](CCCCN)C(=O)N[C@@H](CCCNC(=N)N)C(=O)O (H-TAVQMAVFIHNFKR-OH)	87%	114%
CC[C@H](C)[C@H](NC(=O)[C@H](Cc1ccccc1)NC(=O)[C@@H](NC(=O)[C@H](C)NC(=O)[C@H](CCSC)NC(=O)[C@H](CCC(N)=O)NC(=O)[C@@H](NC(=O)[C@H](C)NC(=O)[C@H](C)N)C(C)C)C(C)C)C(=O)N[C@@H](Cc1cnc[nH]1)C(=O)N[C@@H](CC(N)=O)C(=O)N[C@@H](Cc1ccccc1)C(=O)N[C@@H](CCCCN)C(=O)N[C@@H](CCCNC(=N)N)C(=O)N[C@@H](CCCCN)C(=O)O (H-AAVQMAVFIHNFKRK-OH)	83%	80%
CC[C@H](C)[C@H](NC(=O)[C@H](Cc1ccccc1)NC(=O)[C@@H](NC(=O)[C@H](C)NC(=O)[C@H](CCSC)NC(=O)[C@H](CCC(N)=O)NC(=O)[C@@H](NC(=O)[C@H](C)NC(=O)[C@@H](N)[C@@H](C)O)C(C)C)C(C)C)C(=O)N[C@@H](C)C(=O)N[C@@H](CC(N)=O)C(=O)N[C@@H](Cc1ccccc1)C(=O)N[C@@H](CCCCN)C(=O)N[C@@H](CCCNC(=N)N)C(=O)N[C@@H](CCCCN)C(=O)O (H-TAVQMAVFIANFKRK-OH)	122%	121%
CC[C@H](C)[C@H](NC(=O)[C@H](Cc1ccccc1)NC(=O)[C@@H](NC(=O)[C@H](C)N(C)C(=O)[C@H](CCSC)NC(=O)[C@H](CCC(N)=O)NC(=O)[C@@H](NC(=O)[C@H](C)NC(=O)[C@@H](N)[C@@H](C)O)C(C)C)C(C)C)C(=O)N[C@@H](Cc1cnc[nH]1)C(=O)N[C@@H](CC(N)=O)C(=O)N[C@@H](Cc1ccccc1)C(=O)N[C@@H](CCCCN)C(=O)N[C@@H](CCCNC(=N)N)C(=O)N[C@@H](CCCCN)C(=O)O (H-TAVQM[NMeA]VFIHNFKRK-OH)	99%	66%
CC[C@H](C)[C@H](NC(=O)[C@H](Cc1ccccc1)NC(=O)[C@@H](NC(=O)[C@H](C)NC(=O)[C@H](CCSC)NC(=O)[C@H](CCC(N)=O)NC(=O)[C@@H](NC(=O)[C@H](C)NC(=O)[C@@H](N)[C@@H](C)O)C(C)C)C(C)C)C(=O)N[C@@H](Cc1cnc[nH]1)C(=O)N[C@@H](CC(N)=O)C(=O)N[C@@H](Cc1ccccc1)C(=O)N[C@@H](CCCCN)C(=O)N[C@H](CCCNC(=N)N)C(=O)N[C@@H](CCCCN)C(=O)O	93%	169%
CC[C@H](C)[C@H](NC(=O)[C@H](Cc1ccccc1)NC(=O)[C@@H](NC(=O)[C@H](C)N)C(C)C)C(=O)N[C@@H](Cc1cnc[nH]1)C(=O)N[C@@H](CC(N)=O)C(=O)N[C@@H](Cc1ccccc1)C(=O)N[C@@H](CCCCN)C(=O)N[C@@H](CCCNC(=N)N)C(=O)N[C@@H](CCCCN)C(=O)O (H-AVFIHNFKRK-OH)	120%	111%
CC[C@H](C)[C@H](NC(=O)[C@H](Cc1ccccc1)NC(=O)[C@@H](NC(=O)[C@H](C)NC(=O)[C@H](CCSC)NC(=O)[C@H](CCC(N)=O)NC(=O)[C@@H](NC(=O)[C@H](C)NC(=O)[C@@H](N)[C@@H](C)O)C(C)C)C(C)C)C(=O)N[C@@H](Cc1cnc[nH]1)C(=O)N[C@@H](C)C(=O)N[C@@H](Cc1ccccc1)C(=O)N[C@@H](CCCCN)C(=O)N[C@@H](CCCNC(=N)N)C(=O)N[C@@H](CCCCN)C(=O)O (H-TAVQMAVFIHAFKRK-OH)	33%	105%
CSCC[C@H](NC(=O)[C@H](CCC(N)=O)NC(=O)[C@@H](NC(=O)[C@H](C)NC(=O)[C@@H](N)[C@@H](C)O)C(C)C)C(=O)N[C@@H](C)C(=O)N[C@H](C(=O)N[C@@H](Cc1ccccc1)C(=O)N[C@@H](C)C(=O)N[C@@H](Cc1cnc[nH]1)C(=O)N[C@@H](CC(N)=O)C(=O)N[C@@H](Cc1ccccc1)C(=O)N[C@@H](CCCCN)C(=O)N[C@@H](CCCNC(=N)N)C(=O)N[C@@H](CCCCN)C(=O)O)C(C)C (H-TAVQMAVFAHNFKRK-OH)	156%	254%
CC[C@H](C)[C@H](NC(=O)[C@H](Cc1ccccc1)NC(=O)[C@@H](NC(=O)[C@H](C)NC(=O)[C@H](C)NC(=O)[C@H](CCC(N)=O)NC(=O)[C@@H](NC(=O)[C@H](C)NC(=O)[C@@H](N)[C@@H](C)O)C(C)C)C(C)C)C(=O)N[C@@H](Cc1cnc[nH]1)C(=O)N[C@@H](CC(N)=O)C(=O)N[C@@H](Cc1ccccc1)C(=O)N[C@@H](CCCCN)C(=O)N[C@@H](CCCNC(=N)N)C(=O)N[C@@H](CCCCN)C(=O)O (H-TAVQAAVFIHNFKRK-OH)	113%	172%
CC[C@H](C)[C@H](NC(=O)[C@H](Cc1ccccc1)NC(=O)[C@@H](NC(=O)[C@H](C)NC(=O)[C@H](CCSC)NC(=O)[C@H](CCC(N)=O)NC(=O)[C@@H](NC(=O)[C@H](C)NC(=O)[C@@H](N)[C@@H](C)O)C(C)C)C(C)C)C(=O)N[C@@H](Cc1cnc[nH]1)C(=O)N[C@@H](CC(N)=O)C(=O)N(C)[C@@H](Cc1ccccc1)C(=O)N[C@@H](CCCCN)C(=O)N[C@@H](CCCNC(=N)N)C(=O)N[C@@H](CCCCN)C(=O)O (H-TAVQMAVFIHN[NMeF]KRK-OH)	122%	50%
CC[C@H](C)[C@H](NC(=O)[C@H](Cc1ccccc1)NC(=O)[C@@H](NC(=O)[C@H](C)NC(=O)[C@H](CCSC)NC(=O)[C@H](CCC(N)=O)NC(=O)[C@@H](NC(=O)[C@H](C)N(C)C(=O)[C@@H](N)[C@@H](C)O)C(C)C)C(C)C)C(=O)N[C@@H](Cc1cnc[nH]1)C(=O)N[C@@H](CC(N)=O)C(=O)N[C@@H](Cc1ccccc1)C(=O)N[C@@H](CCCCN)C(=O)N[C@@H](CCCNC(=N)N)C(=O)N[C@@H](CCCCN)C(=O)O (H-T[NMeA]VQMAVFIHNFKRK-OH)	75%	86%
CC[C@H](C)[C@H](NC(=O)[C@H](Cc1ccccc1)NC(=O)[C@@H](NC(=O)[C@H](C)NC(=O)[C@H](CCSC)NC(=O)[C@H](CCC(N)=O)NC(=O)[C@@H](NC(=O)[C@H](C)NC(=O)[C@@H](N)[C@@H](C)O)C(C)C)C(C)C)C(=O)N[C@@H](Cc1cnc[nH]1)C(=O)N[C@H](CC(N)=O)C(=O)N[C@@H](Cc1ccccc1)C(=O)N[C@@H](CCCCN)C(=O)N[C@@H](CCCNC(=N)N)C(=O)N[C@@H](CCCCN)C(=O)O	116%	92%
CSCC[C@H](NC(=O)[C@H](CCC(N)=O)NC(=O)[C@@H](NC(=O)[C@H](C)NC(=O)[C@@H](N)[C@@H](C)O)C(C)C)C(=O)N[C@@H](C)C(=O)N[C@H](C(=O)N[C@@H](Cc1ccccc1)C(=O)O)C(C)C (H-TAVQMAVF-OH)	0%	0%
